Experimental data reported in PMC12352620, “Fragment-based discovery of dual ligand pharmacophores for lipid-sensing transcription factors for designed polypharmacology” (RSC Medicinal Chemistry, 2025).

Assays:
Assay type in all cases: cell-based
PPARγ = biological target: T1, PPARγ (Homo sapiens, UniProt P37231); assay: Gal4-hybrid reporter gene assay PPARγ; settings: mean ± S.E.M., n ≥ 3; for EC50: HEK293T, Gal4-hybrid reporter, Inactive = tested 1–300 μM; for max. fold activation PPARγ: maximum reporter activation vs DMSO (0.1%) treated cells
T1 construct: expressed in transfected cells; host or cells: HEK293T
T1 sequence (P37231 238-503 limits assumed): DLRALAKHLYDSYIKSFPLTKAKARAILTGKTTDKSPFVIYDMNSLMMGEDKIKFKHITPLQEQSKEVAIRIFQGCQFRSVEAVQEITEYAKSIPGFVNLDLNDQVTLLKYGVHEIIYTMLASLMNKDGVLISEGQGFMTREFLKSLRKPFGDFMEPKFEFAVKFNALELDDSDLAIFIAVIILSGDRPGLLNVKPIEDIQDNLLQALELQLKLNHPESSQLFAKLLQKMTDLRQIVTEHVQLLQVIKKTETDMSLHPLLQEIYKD
Experimental: (§1) NR modulation was determined as described previously[45] in Gal4 hybrid reporter gene assays in HEK293T cells (German Collection of Microorganisms and Cell Culture GmbH, DSMZ) using pFR-Luc (Stratagene, La Jolla, CA, USA; reporter), pRL-SV40 (Promega, Madison, WI, USA; internal control) and the hybrid receptor clones pFA-CMV-hTHRα-LBD,[46] pFA-CMV-hPPARγ-LBD,[47] pFA-CMV-hFXR-LBD,[48] and pFA-CMV-hRXRα-LBD,[49] coding for the hinge region and ligand binding domain of the canonical isoform of the respective NR. Cells were cultured in Dulbecco's modified Eagle's medium (DMEM), high glucose supplemented with 10% fetal calf serum (FCS), sodium pyruvate (1 mM), penicillin (100 U mL^−1), and streptomycin (100 μg mL^−1) at 37 °C and 5% CO2 and seeded in 96-well plates (3 × 10^4 cells per well). After 24 h, medium was changed to Opti-MEM without supplements and cells were transiently transfected using Lipofectamine LTX reagent (Invitrogen, Carlsbad, CA, USA) according to the manufacturer's protocol. Five hours after transfection, cells were incubated with the test compounds in Opti-MEM supplemented with penicillin (100 U mL^−1), streptomycin (100 μg mL^−1) and 0.1% DMSO for 16 h before luciferase activity was measured using the Dual-Glo Luciferase Assay System (Promega) according to the manufacturer's protocol on a Tecan Spark luminometer (Tecan Deutschland GmbH, Crailsheim, Germany). Firefly luminescence was divided by Renilla luminescence and multiplied by 1000 resulting in relative light units (RLU) to normalize for transfection efficiency and cell growth. Fold activation was obtained by dividing the mean RLU of test compound by the mean RLU of the untreated control. All samples were tested in at least three biologically independent experiments in duplicates. For dose–response curve fitting and calculation of EC50 values, the equation “[agonist] vs. response − variable slope (four parameters)” was used in GraphPad Prism (version 7.00, GraphPad Software, La Jolla, CA, USA). For selectivity profiling, the hybrid reporter gene assay was performed with Gal4 fusion receptor plasmids for RARα, PPARα, PPARδ, VDR, CAR and LXRα. The following reference agonists were used: triiodothyronine (1 μM, THR), all-trans retinoic acid (1 μM, RAR), GW7647 (1 μM, PPARα), pioglitazone (1 μM, PPARγ), L165041 (1 μM, PPARδ), calcitriol (1 μM, VDR), CITCO (1 μM, CAR), T0901317 (1 μM, LXR), GW4064 (1 μM, FXR), bexarotene (1 μM, RXR).

FXR = biological target: T2, FXR (Homo sapiens, UniProt Q96RI1); assay: Gal4-hybrid reporter gene assay FXR; settings: mean ± S.E.M., n ≥ 3; for EC50 / EC50 FXR: HEK293T, Gal4-hybrid reporter, Inactive = tested 1–300 μM; for max. fold activation FXR: maximum reporter activation vs DMSO (0.1%) treated cells
T2 construct: expressed in transfected cells; host or cells: HEK293T
T2 sequence (Q96RI1 262-486 limits assumed): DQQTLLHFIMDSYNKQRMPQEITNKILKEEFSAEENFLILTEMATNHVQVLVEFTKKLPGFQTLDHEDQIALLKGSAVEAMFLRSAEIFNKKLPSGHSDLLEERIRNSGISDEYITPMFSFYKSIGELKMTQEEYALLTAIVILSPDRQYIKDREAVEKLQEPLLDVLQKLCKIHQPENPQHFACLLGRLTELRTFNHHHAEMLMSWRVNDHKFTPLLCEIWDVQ
Experimental: as §1

THRα = biological target: T3, THRα (Homo sapiens, UniProt P10827); assay: Gal4-hybrid reporter gene assay THRα; settings: mean ± S.E.M., n ≥ 3; for EC50 / EC50 THRα: HEK293T, Gal4-hybrid reporter, Inactive = tested 1–300 μM; for max. fold activation THRα: maximum reporter activation vs DMSO (0.1%) treated cells
T3 construct: expressed in transfected cells; host or cells: HEK293T
T3 sequence (P10827 128-410 isoform P10827-2 limits assumed): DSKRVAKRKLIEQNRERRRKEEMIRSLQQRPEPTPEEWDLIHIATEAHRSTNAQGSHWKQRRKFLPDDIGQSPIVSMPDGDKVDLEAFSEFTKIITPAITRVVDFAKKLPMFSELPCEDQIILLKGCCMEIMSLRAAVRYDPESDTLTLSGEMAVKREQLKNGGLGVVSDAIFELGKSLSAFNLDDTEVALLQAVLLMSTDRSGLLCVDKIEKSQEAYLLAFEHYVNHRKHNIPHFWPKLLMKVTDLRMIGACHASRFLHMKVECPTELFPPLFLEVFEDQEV
Experimental: as §1

RXRα = biological target: T4, RXRα (Homo sapiens, UniProt P19793); assay: Gal4-hybrid reporter gene assay RXRα; settings: mean ± S.E.M., n ≥ 3; for EC50 / EC50 RXRα: HEK293T, Gal4-hybrid reporter, Inactive = tested 1–300 μM; for max. fold activation RXRα: maximum reporter activation vs DMSO (0.1%) treated cells
T4 construct: expressed in transfected cells; host or cells: HEK293T
T4 sequence (P19793 227-458 limits assumed): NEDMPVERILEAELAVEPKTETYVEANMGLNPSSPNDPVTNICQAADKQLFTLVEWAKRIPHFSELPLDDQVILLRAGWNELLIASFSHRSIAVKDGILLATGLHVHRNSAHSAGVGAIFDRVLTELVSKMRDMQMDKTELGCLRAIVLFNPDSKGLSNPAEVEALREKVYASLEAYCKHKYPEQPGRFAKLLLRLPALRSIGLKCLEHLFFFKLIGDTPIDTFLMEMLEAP
Experimental: as §1

Structure (SMILES)	EC50 (PPARγ) [µM]	max. fold activation PPARγ (PPARγ)	EC50 (FXR) [µM]	max. fold activation FXR (FXR)	EC50 (THRα) [µM]	max. fold activation THRα (THRα)	EC50 (RXRα) [µM]	max. fold activation RXRα (RXRα)	EC50 FXR (FXR)	EC50 THRα (THRα)	EC50 RXRα (RXRα)
O=C(O)c1coc(-c2cccc(Cl)c2)c1 [3.2, 5-(3-Chlorophenyl)furan-3-carboxylic acid]	32 ± 2	(3.2 ± 0.2-fold)	11 ± 2	(1.7 ± 0.1-fold)	26 ± 5	(2.1 ± 0.2-fold)	14 ± 5	(2.1 ± 0.2-fold)			
O=C(O)/C=C/C(=O)c1ccccc1 [4.1, (E)-4-Oxo-4-phenylbut-2-enoic acid]	62 ± 2	(26 ± 2-fold)							Inactive	Inactive	Inactive
O=C(O)CCCC#Cc1ccccc1 [2.27]	106 ± 5	(25.0 ± 0.8-fold)					129 ± 11	(22.5 ± 1.5-fold)	Inactive	Inactive	
COc1ccc(/C=C/C(=O)O)cc1 [2.12]	126 ± 9	(6.7 ± 0.3-fold)							Inactive	Inactive	Inactive
COc1ccc(/C=C(/C(=O)O)C(F)(F)F)cc1 [2.19]	86 ± 8	(21 ± 1-fold)	108 ± 22	(3.2 ± 0.4-fold)	55 ± 19	(2.6 ± 0.3-fold)	55 ± 8	(3.5 ± 0.1-fold)			
O=C(O)/C=C/C=C/c1ccc2c(c1)OCO2 [2.6]	137 ± 8	(9.3 ± 0.5-fold)	138 ± 44	(5.2 ± 0.8-fold)	225 ± 91	(5.0 ± 1.4-fold)	112 ± 19	(3.4 ± 0.2-fold)			
O=C(O)/C=C/C(=O)c1ccc(F)cc1F [2.28]	51 ± 9	(11.0 ± 0.5-fold)			10 ± 3	(1.7 ± 0.1-fold)			Inactive		Inactive
N#Cc1c(F)c(F)cc(C(=O)O)c1F [compound 58]	39 ± 3	(9.6 ± 0.5-fold)							Inactive	Inactive	Inactive
CCOc1ccc(C(=O)/C=C/C(=O)O)cc1 [2.7]	25.9 ± 0.4	(31.2 ± 0.6-fold)	26 ± 1	(9.5 ± 0.4-fold)	27 ± 1	(8.9 ± 0.5-fold)	33 ± 6	(8 ± 1-fold)			
Cc1ccccc1C(=O)/C=C/C(=O)O [4.2, (E)-4-Oxo-4-(o-tolyl)but-2-enoic acid]	32 ± 1	(20 ± 1-fold)	39 ± 3	(3.8 ± 0.4-fold)	31 ± 7	(2.4 ± 0.3-fold)	50 ± 4	(7 ± 2-fold)			
